# Active and inactive are the calls of the source. How the calls were made is not given here.
# Tested on: CCRIS mutagenicity, Ames/micronucleus/aberration tests
# Experiment: CCRIS mutagenicity studies
# [1] = Test System: AMES SALMONELLA TYPHIMURIUM, Strain/Indicator: TA98, Metabolic Activation: NONE, Method: PREINCUBATION
# [2] = Test System: AMES SALMONELLA TYPHIMURIUM, Strain/Indicator: TA100, Metabolic Activation: NONE, Method: PREINCUBATION
# [3] = Test System: AMES SALMONELLA TYPHIMURIUM, Strain/Indicator: TA1535, Metabolic Activation: NONE, Method: PREINCUBATION
# [4] = Test System: AMES SALMONELLA TYPHIMURIUM, Strain/Indicator: TA1537, Metabolic Activation: NONE, Method: PREINCUBATION
smiles,measurement,setting,value
CC(=O)NS(=O)(=O)c1ccc(N)cc1,mutagenic call,"End Point: IN VITRO CHROMOSOMAL ABERRATIONS, Test System: CHINESE HAMSTER OVARY CELLS, Metabolic Activation: NONE",inactive; negative
same,mutagenic call,"End Point: IN VITRO CHROMOSOMAL ABERRATIONS, Test System: CHINESE HAMSTER OVARY CELLS, Metabolic Activation: RAT, LIVER, S-9, AROCLOR 1254",inactive; negative
same,mutagenic call,"Test System: AMES SALMONELLA TYPHIMURIUM, Strain/Indicator: TA98, Metabolic Activation: HAMSTER, LIVER, S-9, AROCLOR 1254 (10%), Method: PREINCUBATION",inactive; negative
same,mutagenic call,[1],inactive; negative
same,mutagenic call,"Test System: AMES SALMONELLA TYPHIMURIUM, Strain/Indicator: TA98, Metabolic Activation: RAT, LIVER, S-9, AROCLOR 1254 (10%), Method: PREINCUBATION",inactive; negative
same,mutagenic call,"Test System: AMES SALMONELLA TYPHIMURIUM, Strain/Indicator: TA100, Metabolic Activation: HAMSTER, LIVER, S-9, AROCLOR 1254 (10%), Method: PREINCUBATION",inactive; negative
same,mutagenic call,[2],inactive; negative
same,mutagenic call,"Test System: AMES SALMONELLA TYPHIMURIUM, Strain/Indicator: TA100, Metabolic Activation: RAT, LIVER, S-9, AROCLOR 1254 (10%), Method: PREINCUBATION",inactive; negative
same,mutagenic call,"Test System: AMES SALMONELLA TYPHIMURIUM, Strain/Indicator: TA1535, Metabolic Activation: HAMSTER, LIVER, S-9, AROCLOR 1254 (10%), Method: PREINCUBATION",inactive; negative
same,mutagenic call,[3],inactive; negative
same,mutagenic call,"Test System: AMES SALMONELLA TYPHIMURIUM, Strain/Indicator: TA1535, Metabolic Activation: RAT, LIVER, S-9, AROCLOR 1254 (10%), Method: PREINCUBATION",inactive; negative
same,mutagenic call,"Test System: AMES SALMONELLA TYPHIMURIUM, Strain/Indicator: TA1537, Metabolic Activation: HAMSTER, LIVER, S-9, AROCLOR 1254 (10%), Method: PREINCUBATION",inactive; negative
same,mutagenic call,[4],inactive; negative
same,mutagenic call,"Test System: AMES SALMONELLA TYPHIMURIUM, Strain/Indicator: TA1537, Metabolic Activation: RAT, LIVER, S-9, AROCLOR 1254 (10%), Method: PREINCUBATION",inactive; negative
Clc1ccc(C(Cl)(Cl)Cl)cc1,mutagenic call,"End Point: IN VITRO CHROMOSOMAL ABERRATIONS, Test System: CHL CELLS, Metabolic Activation: NONE",active; positive (structural changes)
same,mutagenic call,"End Point: IN VITRO CHROMOSOMAL ABERRATIONS, Test System: CHL CELLS, Metabolic Activation: RAT, LIVER, S-9, SODIUM PHENOBARBITAL AND 5,6-BENZOFLAVONE",active; positive (structural changes)
same,mutagenic call,[1],inactive; negative
same,mutagenic call,"Test System: AMES SALMONELLA TYPHIMURIUM, Strain/Indicator: TA98, Metabolic Activation: RAT LIVER S-9, PHENOBARBITAL AND BETA-NAPHTHOFLAVONE, Method: PREINCUBATION",active; positive
same,mutagenic call,[2],inactive; negative
same,mutagenic call,"Test System: AMES SALMONELLA TYPHIMURIUM, Strain/Indicator: TA100, Metabolic Activation: RAT LIVER S-9, PHENOBARBITAL AND BETA-NAPHTHOFLAVONE, Method: PREINCUBATION",active; positive
same,mutagenic call,[3],inactive; negative
same,mutagenic call,"Test System: AMES SALMONELLA TYPHIMURIUM, Strain/Indicator: TA1535, Metabolic Activation: RAT LIVER S-9, PHENOBARBITAL AND BETA-NAPHTHOFLAVONE, Method: PREINCUBATION",active; positive
same,mutagenic call,[4],inactive; negative
same,mutagenic call,"Test System: AMES SALMONELLA TYPHIMURIUM, Strain/Indicator: TA1537, Metabolic Activation: RAT LIVER S-9, PHENOBARBITAL AND BETA-NAPHTHOFLAVONE, Method: PREINCUBATION",active; positive
same,mutagenic call,"Test System: AMES SALMONELLA TYPHIMURIUM, Strain/Indicator: TA1538, Metabolic Activation: NONE, Method: PREINCUBATION",inactive; negative
same,mutagenic call,"Test System: AMES SALMONELLA TYPHIMURIUM, Strain/Indicator: TA1538, Metabolic Activation: RAT LIVER S-9, PHENOBARBITAL AND BETA-NAPHTHOFLAVONE, Method: PREINCUBATION",inactive; negative
same,mutagenic call,"Test System: E.COLI, Strain/Indicator: WP2UVRA, Metabolic Activation: NONE, Method: PREINCUBATION",inactive; negative
same,mutagenic call,"Test System: E.COLI, Strain/Indicator: WP2UVRA, Metabolic Activation: RAT LIVER S-9, PHENOBARBITAL AND BETA-NAPHTHOFLAVONE, Method: PREINCUBATION",active; positive
